Laboratory results from patent publication US12019083B2, “Compound distribution in microfluidic devices” (EMULATE, Inc., priority 2019, dated 2024).
“Also recorded” adds a separate entry of the source.

Columns and labels:
[1] = First round absorption study on Parylene coated SEBS and PDMS gaskets (plate reader); assay type: physicochemical; conditions: coating thickness 2 μm and 8 μm; exposure 0, 14, 40 and 72 hours
From the text: Two quantitative studies were run on Parylene coated materials in order to assess its effectiveness in minimizing small molecule absorbency. In the first study Parylene coated SEBS and Parylene coated PDMS were both exposed to Rhodamine B and Coumarin. In the second study the absorption of Parylene coated SEBS and Parylene coated E140 were compared to the absorption of known low-absorbing materials, such as glass and COP.
In the first round of absorption studies, SEBS and PDMS gaskets were coated with Parylene at two thicknesses: 2 μm and 8 μm. Parylene-coated gaskets were exposed to Rhodamine B and Coumarin for 0, 14, 40 and 72 hours. The remaining concentration of Rhodamine B and Coumarin in the exposure solution were measured on a plate reader. Each condition was tested on two gaskets. Limited replicates were available due to the number of conditions run. This “shotgun approach” was used in order to try many coating conditions and quickly determine the best options. […] FIG. 33B depicts the fraction of Rhodamine B recovered from the solutions for coatings of varying thickness on two materials known to absorb. […] One observation from the experiment was that the Parylene may crack, leading to gasket absorption. Another observation from the experiment was that Parylene adhesion to the PDMS and SEBS was poor, resulting in easy removal of Parylene. […]

[2] = Flow absorption study in PDMS microfluidic device / compound distribution kit; assay type: physicochemical
From the text: An exemplary method may follow the method of an intended experiment or study. As an example, the compound distribution kit may be used with microfluidic devices. An exemplary method for use with microfluidic devices may follow an intended study method with the following changes: no coatings, no cell seeding, and reduced number of compound doses. In one embodiment, there may not be a need to perform coatings on the microfluidic device that are related to biological aspects of the experiment. Some coatings, such as those that change the chemistry of the microfluidic device material makeup, may need to be done, especially if they may affect compound absorbency. It one embodiment, coatings are done with the compound distribution kit at the discretion of the user. In one embodiment, cell seeding is not needed. In one embodiment, if the intended-study protocol compares several concentrations of a test compound, the absorption control experiment need only be run for one of these concentrations. In one embodiment, it is recommended to use the highest compound concentration planned for the intended study, in order to maximize quantification (e.g. LCMS) sensitivity. However, a lower concentration of test compound may be selected if there are concerns about the compound's solubility limits or it crashing out of solution at the higher concentration. Crashing out of solution is when the concentration of a solute in a solution reaches a point where the solute precipitates. In one embodiment, the compound is dosed for the same duration, at the same flow rate, in the same microfluidic channel(s) as per the intended protocol, experiment or study. That is, if the intended study specifies dosing only in a first channel, with no compound in a second channel, then the same method would be applied during the use of the compound distribution kit. In one embodiment, media and solution should be the same during use of the compound distribution kit as in the intended study. In one embodiment, the same media or solution, as well as any additives or supplements, as medium composition and additives can interact with test compounds (e.g. protein binding). In one embodiment, media or solutions should also be equilibrated in the same manner, such as degassing and preheating. In one embodiment, effluent samples taken during use of the compound distribution kit should be collected at the same time as the intended study. Compound distribution can be a highly dynamic process, and as such matching time points may be able to ensure that the results of the compound distribution kit correspond closely to the intended study. […]

[3] = Fluorescent imaging of Parylene-coated gaskets exposed to Rhodamine B; assay type: physicochemical
From the text: Parylene-coated PDMS gaskets were exposed to the fluorescent molecule Rhodamine B and fluorescently imaged. […] However, the absorption is primarily localized to areas with sharp corners. […] Parylene-coated SEBS gaskets were exposed to the fluorescent molecule Rhodamine B and fluorescently imaged as well. […] However, the absorption is primarily localized to areas with sharp corners. Some absorption can be seen inside of the via, but it was minimal, difficult to visualize, and quite possibly an optical artifact unrelated to absorption.

[4] = Fluorescent molecule absorption in perfusion manifold assemblies under flow; assay type: physicochemical; conditions: 30 μL/hr for 38 hours
Protocol: Fluorescent molecule Rhodamine B (a fluorescent molecule that is also moderately absorbing into PDMS and SEBS) was dissolved in a buffer, flowed through a perfusion manifold assembly (14) and absorbing microfluidic device (12) fabricated out of PDMS at 30 μL/hr for 38 hours on a culture module. The perfusion manifold assemblies (14) were rinsed with buffer not containing the fluorescent molecule at 200 μL/hr for an hour before the start of the experiment.
Following the experiment, the perfusion manifold assemblies (14) were disassembled and the vias (35) of the capping, gasketing and backplane assembly or fluidic layer assembly (34), as well as the perfusion manifold assembly (14) resistors (27), were imaged with fluorescent microscopy. FIG. 25A depicts the resulting fluorescence in the fluidic layer assembly (34) of an absorbing perfusion manifold assembly (14) comprising a combined gasketing and capping layer (26). FIG. 25B depicts the resulting fluorescence on one aspect the invention described herein, a low-absorbing perfusion manifold assembly comprising both a low-absorbing capping and low-absorbing gasketing layer. In the embodiment of the perfusion manifold assembly (14) used in the experiment, the capping layer was fabricated from COP and the gasketing layer was fabricated out of SEBS coated with Parylene. Bright white colors in FIGS. 25A and 25B correlate to greater degree of absorption of the fluorescent molecule Rhodamine B.

[5] = Time-dependent material absorption test in vials, PDMS; assay type: physicochemical; conditions: for absorption into PDMS: recovered concentration compared to dosing concentration
Protocol: (§1) A method for ascertaining the absorption of a specific small-molecule into a polymer was developed. The output of this method are the fundamental parameters that fully define the absorption of a specific compound into the material tested; specifically, the diffusivity and partition coefficient are ascertained. […] The steps for ascertaining this absorption is as follows: • 1. Dissolve the small molecule in an aqueous phase (medium) and incubate the solution (30) with the tested material (31), such as in a vial (29). The incubation should be long enough so that diffusion is not limiting absorption and the transport into the material is at equilibrium with the transport of the compound out of the material and into the aqueous phase. • 2. Sample media from the vials at a number of time points. • 3. Measure the concentration of the small molecule remaining in the aqueous phase (30) using a mass spectrometer, plate reader, etc. from the media sampled. • 4. Curve-fit the measured data to quantify the absorption and diffusion parameters.
(§2) Each experiment includes a number of controls and test conditions. Using multiple controls and test conditions allows absorption to the vial and well-plate to be characterized, as well as absorption versus adsorption to the tested material, as well as yielding the time-dependent nature of absorption into the material. […] The goals of the experiments are to directly quantify partitioning of the compound, or compound loss at equilibrium (kinetics), and to directly quantify diffusion of the compound, or time-dependent compound loss (dynamics).
(§3) Single time point experiments are only capable of extracting kinetics, not dynamics. Time-dependent studies capture not only equilibrium endpoints (K), but also time-dependent changes/dynamics (D). One-dimensional computational models are used to fit experimental results of time-dependent studies. […] Once the particular curve is known, the parameters which defined that curve are taken as the fundamental parameters defining the material-compound absorptive interaction.

[6] = recovered concentration compared to dosing concentration
From the text: Curve-fit the measured data to quantify the absorption and diffusion parameters.

[7] = Time-dependent material absorption test in vials, SEBS; assay type: physicochemical; conditions: for absorption into SEBS: recovered concentration compared to dosing concentration
Protocol: as §1, §2, §3

[8] = Flow study of microfluidic device in fluidic communication with perfusion manifold assembly; assay type: physicochemical
From the text: FIGS. 98A and 98B show a comparison between a computational (COMSOL) model results and actual experimental results for cellular exposure ranges of the small-molecule compound Coumarin. […] For this experiment the microfluidic device was in fluidic communication with a perfusion manifold assembly. […] FIGS. 99A and 99B show a comparison between a computational (COMSOL) model results and actual experimental results for cellular exposure ranges of the small-molecule compound Coumarin. […] For this experiment the microfluidic device was in fluidic communication with a perfusion manifold assembly.

[9] = Second round absorption study: Parylene coated SEBS and E140 compared with glass, COP and control solution; assay type: physicochemical
From the text: Two quantitative studies were run on Parylene coated materials in order to assess its effectiveness in minimizing small molecule absorbency. In the first study Parylene coated SEBS and Parylene coated PDMS were both exposed to Rhodamine B and Coumarin. In the second study the absorption of Parylene coated SEBS and Parylene coated […] were compared to the absorption of known low-absorbing materials, such as glass and COP. In the second round of absorption studies, after parylene-coating process optimization, the absorption of Parylene coated SEBS and Parylene coated […] were compared to both the absorption of known low-absorbing materials, such as glass and COP, and a control solution of the drug not in contact with a material. The coated materials were exposed to a solution carrying a known concentration of the drug, Coumarin. The solution was tested three times to quantify the remaining concentration of the Coumarin, before exposure to the material, at 22 hours and at 92 hours. […] SEBS absorbed more of the compound than […].

[10] = tested before exposure, at 22 hours and at 92 hours

CCN(CC)c1ccc2c(-c3ccccc3C(=O)O)c3ccc(=[N+](CC)CC)cc-3oc2c1 [Rhodamine B]
absorption by Parylene coated PDMS and SEBS [1]: minimal Rhodamine B was absorbed
rate and extent of absorption ([2]; flow study outlet concentrations): lower rate of absorption, but higher extent of absorption
absorption in Parylene-coated SEBS gaskets (microscopy) [3]: some minimal absorption is present
absorption within the microfluidic device ports of Parylene-coated PDMS gaskets ([3]; ports leading into the channels): No absorption was seen
absorption in Parylene-coated PDMS gaskets (microscopy) ([3]; whole gasket): some absorption is present but localized to areas that might not have been fully coated
absorption in perfusion manifold assemblies with COP capping layer and Parylene coated SEBS gasketing layer [4]: did not absorb a significant amount
absorption in perfusion manifold assembly with COP capping layer and non-coated SEBS gasketing layer [4]: absorbed the fluorescent molecule
absorption in perfusion manifold assembly with combined gasketing and capping layer [4]: absorbed the fluorescent molecule
absorption in resistors capped with COP [4]: very little
absorption in resistors capped with SEBS [4]: relatively high extent

C=C(C)[C@@H]1CCC(C)=C[C@H]1c1c(O)cc(CCCCC)cc1O [CBD, cannabidiol]
measured outlet concentrations of the compound ([2]; microfluidic device fabricated entirely from PDMS): 0
absorption or loss of compound in microfluidic device fabricated from entirely PDMS ([2]; several flow rates, even at the highest flow rate): complete/total absorption or loss of compound

CN1C(=O)CN=C(c2ccccc2)c2cc(Cl)ccc21 [Diazepam]
fraction of Diazepam absorbed by PDMS ([5]; by hour 12 of contact with PDMS): ⅔ and two thirds

CCc1cccc2cc(C(O)CNC(C)(C)C)oc12 (stereo not shown) [Bufuralol]
absorption into glass, polypropylene, polystyrene or COP [6]: did not absorb significantly
PDMS partition value (K) [5]: greater than 216
recovered concentration from the PDMS experiments ([5]; LCMS): below the lower limit of detection
absorption into PDMS [5]: absorbed almost entirely
SEBS partition value (K) [7]: 4.77
absorption into SEBS [7]: absorbed somewhat

O=c1ccc2ccccc2o1 [Coumarin]
absorption into SEBS of the perfusion manifold assembly [8]: especially susceptible to absorption
absorption into materials coated with Parylene ([9]; Parylene coated SEBS and E140, 22 and 92 hours): do not absorb significant amounts
absorption into glass and COP compared to control solution [9, 10]: did not absorb
absorption into uncoated SEBS and E140 [9, 10]: both absorb; also recorded: SEBS absorbed more of the compound than E140
absorption by Parylene coated PDMS and SEBS [1]: some Coumarin was absorbed
effect of flow rate on absorption into PDMS ([2]; 60 μL/hr versus 150 μL/hr, bottom channel sampled): less compound is absorbed into PDMS at faster flow rates

Cc1ncc2n1-c1ccc(Cl)cc1C(c1ccccc1F)=NC2 [Midazolam]
absorption into glass, polypropylene, polystyrene or COP [6]: did not absorb significantly
PDMS partition value (K) [5]: 201
absorption into PDMS [5]: absorbed significantly
SEBS partition value (K) [7]: 4.05
absorption into SEBS [7]: absorbed somewhat

CN(C)CCC=C1c2ccccc2CCc2ccccc21 [amitriptyline]
absorption into PDMS [5]: absorb into PDMS
